The results in this text go back to ChEMBL document CHEMBL3886467 (2016).

The structures appear in SMILES notation. pIC50: −log10 of the molar value. A value given as a limit tells only on which side of the number the result lay.

The target of this experiment is WD repeat-containing protein 5 (Homo sapiens, UniProt P61964). Description: Binding Assay: All the FP based experiments were performed in MICROFLUOR 2 Black, "U" Bottom, 96-well Microtiter Plates (ThermoSci.) and FP was measured as mP units in a microplate reader (Tecan Ultra) with excitation at 485 nm and emission at 530 nm. To dilutions of WDR5Δ23 (2.2-0 uM) in 100 ul assay buffer (0.1M Phosphate, 25 mM KCl, 0.01% Triton, pH 6.5) 20 ul of a fixed concentration of the tracer in the assay buffer was added, followed by an addition of 5 ul DMSO to give 125 ul of total volume. Each assay had two controls: blank (without protein and tracer) and tracer only (without protein). The plates were incubated on a shaker at room temperature to reach equilibrium and mP values were measured at the 3 hour time point.
Consider `CCNC(=O)[C@H](CCCNC(=N)N)NC(=O)C(CC)(CC)NC(=O)CC`, for which the negative-log IC50 (pIC50) is more than 5.00.

As for `CCC(CC)(NC(=O)C(C)C)C(=O)N[C@@H](CCCNC(=N)N)C(=O)N(C)C`, the pIC50 is less than 4.52.

For the molecule `CC(=O)N[C@@H](C)C(=O)N[C@H](C(=O)N[C@@H](C)C(N)=O)c1ccc(NC(=N)N)cc1`, the pIC50 was less than 5.00.

Regarding `CCC(CC)(NC(=O)C(C)C)C(=O)N[C@H](CCCNC(=N)N)C(=O)NC1(C(=O)NC(c2ccc(Cl)cc2)c2ccc(Cl)cc2)CCCC1`, the negative-log IC50 (pIC50) was more than 5.00.

Turning to `CC(=O)N[C@@H](C)C(=O)N[C@@H](C(=O)N[C@@H](C)C(N)=O)c1ccc(NC(=N)N)cc1`, the negative-log IC50 (pIC50) is less than 5.00.

In the case of `CCC(CC)(NC(=O)C(C)C)C(=O)N[C@@H](CCCNC(=N)N)C(=O)NC1(C(=O)NC(c2ccc(Cl)cc2)c2ccc(Cl)cc2)CCCC1`, the negative logarithm of the IC50 (pIC50) is more than 5.52.

A word on the pIC50: it is −log10 of the IC50, conventionally taken in molar units.
